In patent US20240368122A1, “JAK2 INHIBITORS AND METHODS OF USE THEREOF” (RELAY THERAPEUTICS, INC., priority 2021, published 2024) one finds IC50 and Kd data, which are given here for ten compounds.

The subject of assay [1] is TF1 JAK2 V617F STAT5 reporter. The experiment in a line: Cellular TF1 STAT5 assay (luciferase reporter), JAK2 V617F. It counts as cell-based. The conditions noted are these: TF1 JAK2 V617F, read-out: Cell PD TF1 V617F STAT5 (IC50). The method, boiled down:
(§1)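 Compounds were dispensed as 1000× DMSO stocks (10 mM top, 1:3 steps), then V617F JAK2 TF1 cells carrying a STAT3 or STAT5 luciferase reporter were added. After 18-20 h at 37 °C, ONE-glo reagent was added and luminescence measured.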
For orientation: Reporter assays use an easily measured gene product as a stand-in for the process of interest.

In assay [2] the target is T1, JAK2 JH2 WT (V536-D812) [W659A, W777A, F794H solubilizing mutations] (Homo sapiens, UniProt O60674, F794H/W659A/W777A).
T1 construct: **JAK2 JH2 WT (V536-D812) [W659A, W777A, F794H solubilizing mutations]; C-thrombin-avi-His6; thrombin cleavage site (C); His6 (C); purchased Biortus
The experiment in a line: Surface Plasmon Resonance (SPR) binding assay, JAK2 JH2 domain. The conditions noted are these: SPR, JAK2 JH2 domain. A digest of the protocol:
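Kinetics came from 1:1 fits of single-cycle runs at 20 °C: four 3-fold dilutions from 5 uM for JH1 or 500 nM for JH2, 60 s association, and 300 s or 1200 s dissociation respectively. Protein was freshly captured per compound in the presence of 10 uM stabilizer compound, with running buffer of pH 7.5 HEPES/NaCl/glycerol/DTT plus 2% DMSO.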

Assay [3] deals with TF1 JAK2 V617F STAT3 reporter. The experiment in a line: Cellular TF1 STAT3 assay (luciferase reporter), JAK2 V617F. It counts as cell-based. The conditions noted are these: TF1 JAK2 V617F, read-out: Cell PD-TF1 JAK2 V617F STAT3 (IC50). A digest of the protocol: as §1
The target of the next assay is T2, JAK2 JH1 WT (T842-G1132) (Homo sapiens, UniProt O60674).
T2 construct: *JAK2 JH1 WT (T842-G1132) N-His60-avi-TEV; His6 (N); TEV cleavage site (N); purchased Biortus
The experiment in a line: Surface Plasmon Resonance (SPR) binding assay, JAK2 JH1 domain. The conditions noted are these: SPR, JAK2 JH1 domain. As for the experimental part:
Selected compounds of the present disclosure were tested in a Surface Plasmon Resonance (SPR) Assay to measure their binding kinetics and affinity for proteins of interest.
Prepare buffer: 50 mM HEPES pH 7.5, 150 mM NaCl, 0.05% (v/v) Tween, and 10% (v/v) glycerol were combined and pH was adjusted to 7.5, then filtered. 5 mM DTT, was added, and buffer without DMSO was reserved for compound resuspension. 2% (v/v) DMSO was added for assay buffer, and separately 1% DMSO was used to make buffer for resuspending compounds.
Prepare compounds: Using a Bravo liquid handler, 99 μL of 1% (v/v) DMSO assay buffer was added to 1 μL compounds in DMSO.
Run 8K Method: Biotin CAPture (CAP) chip surface was regenerated prior to run by: Inserting CAP chip into Biacore 8K, prime machine with assay buffer with 2% (v/v) DMSO; Setting instrument temperature to 20° C.; Conditioning surface with NaOH/GdnHCl reagents from CAP chip kit (60 seconds, 10 μL/min); and Capturing oligo-Streptavidin (SA) reagent from CAP kit (600 seconds, 1 μL/min), expected capture ˜2500 RU. JAK2 JH1 or JH2 protein was immobilized by preparing a sample of 0.5 uM JH1 or 0.4 uM JH2 protein diluted in assay buffer without DMSO and supplemented with 10 uM of a selected compound of the invention as a stabilizer (370 seconds, 5 uL/min), expected capture ˜1000 RU. Remaining biotin sites on SA were blocked with 1 uM biotin (30 seconds, 20 uL/min), then equilibrated for 1800 seconds at 100 uL/min. Compounds being assayed were run in single cycle kinetics: 4 doses with a top concentration of 5 uM (JH1) or 500 nM (JH2), dilution factor of 3, at 20° C., for a contact time of 60 seconds, and a dissociation time of 300 seconds (JH1) or 1200 seconds (JH2), at a flow rate of 30 uL/min. The surface was completely regenerated after each compound is run, and JH1 or JH2 protein was immobilized fresh prior to each new compound. Data were fitted kinetically with 1:1 binding model using Biacore Insight Evaluation Software.

T2 sequence (O60674 842-1132): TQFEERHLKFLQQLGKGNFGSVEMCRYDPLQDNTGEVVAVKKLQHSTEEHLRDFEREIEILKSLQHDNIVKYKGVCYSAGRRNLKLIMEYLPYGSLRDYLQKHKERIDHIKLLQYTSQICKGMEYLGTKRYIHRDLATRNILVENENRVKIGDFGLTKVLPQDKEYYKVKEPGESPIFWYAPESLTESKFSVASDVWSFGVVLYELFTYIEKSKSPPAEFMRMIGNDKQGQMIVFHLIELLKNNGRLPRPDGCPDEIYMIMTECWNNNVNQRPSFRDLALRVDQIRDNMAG
T1 sequence (O60674 536-812 W659A/W777A/F794H): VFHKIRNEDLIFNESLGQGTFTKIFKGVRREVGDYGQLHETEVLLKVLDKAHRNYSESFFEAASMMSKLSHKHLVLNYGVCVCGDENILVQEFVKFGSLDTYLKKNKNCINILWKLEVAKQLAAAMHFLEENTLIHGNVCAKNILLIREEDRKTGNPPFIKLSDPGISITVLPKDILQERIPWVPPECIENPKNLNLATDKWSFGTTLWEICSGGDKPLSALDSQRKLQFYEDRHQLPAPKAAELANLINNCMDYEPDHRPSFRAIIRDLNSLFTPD

By IC50 is commonly meant the midpoint of a concentration-inhibition curve. One may read the Kd as the free concentration of one partner at which half of the binding sites on the other are occupied at equilibrium, for simple one-to-one binding. High values mean weaker binding, low ones tighter binding. As to `CNC(=O)c1nnc(NC(=O)C2CC2)cc1Nc1cccc(-c2ccc(C(=O)N(C)Cc3cccnc3C#N)nc2)c1OC` [Compound 136], the IC50 lay within 500 to 5000 nM in assay [1] and 50 to 500 nM in assay [3]. For the same compound, the Kd fell in the range of 0.01 to 10 nM in assay [2] and 5000 to 100000 nM at JAK2 JH1 WT (T842-G1132).
With `CNC(=O)c1nnc(NC(=O)C2CC2)cc1Nc1cccc(-c2cnn(C3CN(Cc4nc(C)cs4)C3)c2)c1OC` [Compound 141], the IC50 in assay [1] and in assay [3] was 500 to 5000 nM throughout. In addition, the Kd was 0.01 to 10 nM in assay [2] and 5000 to 100000 nM at JAK2 JH1 WT (T842-G1132).
`CNC(=O)c1nnc(NC(=O)C2CC2)cc1Nc1cccc(-c2cnn(C3CN(Cc4cccc(F)n4)C3)c2)c1OC` [Compound 142]: the IC50 in assay [1] and in assay [3] was 50 to 500 nM throughout. The Kd lay within 0.01 to 10 nM in assay [2] and 500 to 5000 nM on JAK2 JH1 WT (T842-G1132).
Consider `CNC(=O)c1nnc(NC(=O)C2CC2)cc1Nc1cccc(-c2cnn(C3CN(Cc4cccc(Cl)n4)C3)c2)c1OC` [Compound 143], for which the 50% inhibitory concentration (IC50) in assay [1] and in assay [3] was 50 to 500 nM each time. Further, the Kd fell in the range of 0.01 to 10 nM in assay [2] and 5000 to 100000 nM on JAK2 JH1 WT (T842-G1132).
Take `CNC(=O)c1nnc(NC(=O)C2CC2)cc1Nc1cccc(-c2cnn(C3CN(Cc4cccc(C(F)F)n4)C3)c2)c1OC` [Compound 145]: the IC50 in assay [1] and in assay [3] was 50 to 500 nM each time. Moreover, the Kd in assay [2] was in the range of 0.01 to 10 nM; at JAK2 JH1 WT (T842-G1132), 5000 to 100000 nM.
As for `CNC(=O)c1nnc(NC(=O)C2CC2)cc1Nc1cccc(-c2ccc(C(=O)N(C)Cc3nncs3)nc2)c1OC` [Compound 146], the IC50 in assay [1] fell in the range of 5000 to 100000 nM; in assay [3] it was 500 to 5000 nM. In addition, the Kd in assay [2] lay within 0.01 to 10 nM; on JAK2 JH1 WT (T842-G1132) it was 5000 to 100000 nM.
Regarding `CNC(=O)c1nnc(NC(=O)C2CC2)cc1Nc1cccc(-c2cnn(C3CN(Cc4cccc(C#N)n4)C3)c2)c1OC` [Compound 147], the IC50 in assay [1] and in assay [3] was 50 to 500 nM in each case. In addition, the Kd in assay [2] lay in the range of 0.01 to 10 nM; at JAK2 JH1 WT (T842-G1132), 500 to 5000 nM.
`CNC(=O)c1nnc(NC(=O)C2CC2)cc1Nc1cccc(-c2cnn(C3CN(Cc4ccnc(C)n4)C3)c2)c1OC` [Compound 148]: the figures for the concentration for half-maximal inhibition (IC50) in assay [1] and in assay [3] were 5000 to 100000 nM and 500 to 5000 nM, respectively. Moreover, the Kd is 0.01 to 10 nM in assay [2] and 500 to 5000 nM on JAK2 JH1 WT (T842-G1132).
On to `CNC(=O)c1nnc(NC(=O)C2CC2)cc1Nc1cccc(-c2ccc(C(=O)N(C)Cc3nnc(C)s3)nc2)c1OC` [Compound 149], for which the IC50 in assay [1] and in assay [3] was 500 to 5000 nM each time. Besides, the Kd lay within 0.01 to 10 nM in assay [2] and 5000 to 100000 nM on JAK2 JH1 WT (T842-G1132).
`CNC(=O)c1nnc(NC(=O)C2CC2)cc1Nc1cccc(-c2cn(C3CN(Cc4ccccn4)C3)nn2)c1OC` [Compound 150]: the IC50 in assay [1] and in assay [3] was 500 to 5000 nM throughout. The Kd in assay [2] was in the range of 0.01 to 10 nM; on JAK2 JH1 WT (T842-G1132) it was 5000 to 100000 nM.
